Results as given in article PMC11012124, “Synthesis of Novel Triazine-Based Chalcones and 8,9-dihydro-7H-pyrimido[4,5-b][1,4]diazepines as Potential Leads in the Search of Anticancer, Antibacterial and Antifungal Agents” (International Journal of Molecular Sciences, 2024).

Legend:
NCI-H322M = test: cells; conditions: Homo sapiens, 48 h; for CC50: read-out: LC50
UACC-257 = test: cells; conditions: Homo sapiens, UACC-257, 48 h; for CC50: read-out: LC50
786-0 = test: cells; conditions: Homo sapiens, 786-0, 48 h; for CC50: read-out: LC50
HOP-92 = test: cells; conditions: Homo sapiens, HOP-92, 48 h; for CC50: read-out: LC50
UO-31 = test: cells; conditions: Homo sapiens, UO-31, 48 h
RPMI-8226 = test: cells; conditions: Homo sapiens, RPMI-8226, 48 h; for CC50: read-out: LC50
M14 = test: cells; conditions: Homo sapiens, M14, 48 h; for CC50: read-out: LC50
HT29 = test: cells; conditions: Homo sapiens, HT-29, 48 h
A549/ATCC = test: cells; conditions: Homo sapiens, A549, 48 h; for CC50: read-out: LC50
HOP-62 = test: cells; conditions: Homo sapiens, HOP-62, 48 h; for CC50: read-out: LC50
OVCAR-3 = test: cells; conditions: Homo sapiens, OVCAR-3, 48 h; for CC50: read-out: LC50
UACC-62 = test: cells; conditions: Homo sapiens, UACC-62, 48 h
SNB-75 = test: cells; conditions: Homo sapiens, SNB-75, 48 h; for CC50: read-out: LC50
HCT-15 = test: cells; conditions: Homo sapiens, HCT-15, 48 h; for CC50: read-out: LC50
HCT-116 = test: cells; conditions: Homo sapiens, HCT-116, 48 h
60 cancer cell lines = test: NCI-60 one-dose screen (10 μM); format: cell-based; conditions: Homo sapiens; one dose of 10 μM, mean over 60 cancer cell lines; read-out: Mean Growth Percent (MGP)
From the text: Additionally, the mean of the growth percentages (MGP) of each compound against all the 60 cancer cell lines is also reported, which is used as one of the selection criteria to continue with tests at five concentration doses.

HCC-2998 = test: cells; conditions: Homo sapiens, HCC 2998, 48 h
LOX IMVI = test: cells; conditions: Homo sapiens, 48 h
SF-268 = test: cells; conditions: Homo sapiens, SF-268, 48 h; for CC50: read-out: LC50
HS 578T = test: cells; conditions: Homo sapiens, 48 h; for CC50: read-out: LC50
MDA-MB-231/ATCC = test: cells; conditions: Homo sapiens, MDA-MB-231, 48 h
MOLT-4 = test: cells; conditions: Homo sapiens, MOLT-4, 48 h; for CC50: read-out: LC50
BT-549 = test: cells; conditions: Homo sapiens, BT-549, 48 h
PC-3 = test: cells; conditions: Homo sapiens, PC-3, 48 h
SF-539 = test: cells; conditions: Homo sapiens, SF-539, 48 h
ACHN = test: cells; conditions: Homo sapiens, 48 h
A498 = test: cells; conditions: Homo sapiens, A498, 48 h; for CC50: read-out: LC50
SK-MEL-5 = test: cells; conditions: Homo sapiens, SK-MEL-5, 48 h
NCI-H226 = test: cells; conditions: Homo sapiens, NCI-H226, 48 h; for CC50: read-out: LC50
U251 = test: cells; conditions: Homo sapiens, U-251, 48 h; for GI50: U251, 48 h
RXF 393 = test: cells; conditions: Homo sapiens, RXF 393, 48 h
COLO 205 = test: cells; conditions: Homo sapiens, COLO 205, 48 h; for CC50: read-out: LC50
SF-295 = test: cells; conditions: Homo sapiens, SF-295, 48 h; for CC50: read-out: LC50
EKVX = test: cells; conditions: Homo sapiens, 48 h; for CC50: read-out: LC50
SNB-19 = test: cells; conditions: Homo sapiens, SNB-19, 48 h; for CC50: read-out: LC50
MDA-MB-468 = test: cells; conditions: Homo sapiens, MDA-MB-468, 48 h

## Nc1nc(N)c2c(n1)NC(c1ccc(C(F)(F)F)cc1)CC(c1ccc(Nc3nc(NCCO)nc(Nc4ccc(Cl)cc4)n3)cc1)=N2 (centres unmarked) [33g]
NCI-H322M
  GI50: 1.66 µM
  CC50: 5.63 µM
UACC-257
  GI50: 1.75 µM
  CC50: 5.82 µM
786-0
  GI50: 1.39 µM
  CC50: 6.09 µM
HOP-92
  GI50: 1.48 µM
  CC50: 7.94 µM
UO-31
  GI50: 1.43 µM
UO-31; read-out: LC50
  CC50: 5.3 µM
RPMI-8226
  GI50: 1.51 µM
  CC50: > 100 µM
M14
  GI50: 1.64 µM
  CC50: 5.72 µM
HT29
  GI50: 1.36 µM
HT29; read-out: LC50
  CC50: 6.54 µM
A549/ATCC
  GI50: 1.73 µM
  CC50: 7.08 µM
HOP-62
  GI50: 1.63 µM
  CC50: 6.14 µM
OVCAR-3
  GI50: 1.32 µM
  CC50: 6.57 µM
UACC-62
  GI50: 1.68 µM
SNB-75
  GI50: 1.7 µM
  CC50: 9.06 µM
HCT-15
  GI50: 1.15 µM
  CC50: 5.83 µM
HCT-116
  GI50: 1.05 µM
HCT-116; read-out: LC50
  CC50: 5.54 µM
60 cancer cell lines
  activity at 10 µM: -44.8%
HCC-2998
  GI50: 1.31 µM
HCC-2998; read-out: LC50
  CC50: 5.25 µM
LOX IMVI
  GI50: 1.77 µM
SF-268
  GI50: 1.66 µM
  CC50: 7.27 µM
HS 578T
  GI50: 2.55 µM
  CC50: > 100 µM
MDA-MB-231/ATCC
  GI50: 1.88 µM
MOLT-4
  GI50: 0.888 µM
  CC50: > 100 µM
BT-549
  GI50: 1.57 µM
BT-549; read-out: LC50
  CC50: 6.34 µM
PC-3
  GI50: 1.54 µM
SF-539
  GI50: 1.56 µM
SF-539; read-out: LC50, SF-539, 48 h
  CC50: 5.68 µM
ACHN
  GI50: 1.5 µM
ACHN; read-out: LC50
  CC50: 5.31 µM
A498
  GI50: 1.56 µM
  CC50: 5.4 µM
SK-MEL-5
  GI50: 1.55 µM
SK-MEL-5; read-out: LC50
  CC50: 5.37 µM
NCI-H226
  GI50: 1.84 µM
  CC50: 8.31 µM
U251
  GI50: 1.24 µM
U251; read-out: LC50
  CC50: 5.16 µM
RXF 393
  GI50: 1.14 µM
RXF 393; read-out: LC50
  CC50: 5.48 µM
COLO 205
  GI50: 1.33 µM
  CC50: 5.25 µM
SF-295
  GI50: 1.79 µM
  CC50: 6.14 µM
EKVX
  GI50: 1.52 µM
  CC50: 5.75 µM
SNB-19
  GI50: 1.51 µM
  CC50: 5.76 µM
MDA-MB-468
  GI50: 1.58 µM
MDA-MB-468; read-out: LC50
  CC50: 6.53 µM

## COc1cc(/C=C/C(=O)c2ccc(C)cc2)ccc1Oc1nc(NCCO)nc(N2CCOCC2)n1 [20b]
NCI-H322M
  GI50: 6.24 µM
  CC50: > 100 µM
UACC-257
  GI50: 3.98 µM
  CC50: > 100 µM
786-0
  GI50: 2.18 µM
  CC50: > 100 µM
HOP-92
  GI50: 8.4 µM
  CC50: > 100 µM
UO-31
  GI50: 1.49 µM
RPMI-8226
  GI50: 1.72 µM
  CC50: > 100 µM
M14
  GI50: 2.03 µM
  CC50: > 100 µM
HT29
  GI50: 1.85 µM
A549/ATCC
  GI50: 9.47 µM
  CC50: > 100 µM
HOP-62
  GI50: 16.6 µM
  CC50: > 100 µM
OVCAR-3
  GI50: 2.49 µM
  CC50: > 100 µM
UACC-62
  GI50: 2.01 µM
SNB-75
  GI50: > 100 µM
  CC50: > 100 µM
HCT-15
  GI50: 1.78 µM
  CC50: > 100 µM
HCT-116
  GI50: 1.73 µM
60 cancer cell lines
  activity at 10 µM: 48.9%
HCC-2998
  GI50: 2.08 µM
LOX IMVI
  GI50: 0.43 µM
LOX IMVI; read-out: LC50, LOX IMVI, 48 h
  CC50: 4.09 µM
SF-268
  GI50: 2.9 µM
  CC50: > 100 µM
HS 578T
  GI50: 4.6 µM
  CC50: > 100 µM
MDA-MB-231/ATCC
  GI50: 2.98 µM
MDA-MB-231/ATCC; read-out: LC50
  CC50: > 100 µM
MOLT-4
  GI50: 2.09 µM
  CC50: > 100 µM
BT-549
  GI50: 1.62 µM
PC-3
  GI50: 2.53 µM
PC-3; read-out: LC50
  CC50: > 100 µM
SF-539
  GI50: 1.88 µM
ACHN
  GI50: 1.94 µM
A498
  GI50: > 100 µM
  CC50: > 100 µM
SK-MEL-5
  GI50: 2 µM
NCI-H226
  GI50: 6.28 µM
  CC50: > 100 µM
U251
  GI50: 1.62 µM
RXF 393
  GI50: 2.07 µM
COLO 205
  GI50: 2.64 µM
  CC50: > 100 µM
SF-295
  CC50: > 100 µM
EKVX
  GI50: 3.9 µM
  CC50: > 100 µM
SNB-19
  GI50: 2.45 µM
  CC50: > 100 µM
MDA-MB-468
  GI50: 1.98 µM
